Species on record: Rattus norvegicus
Test: Open TG-GATES - Regimen: Single
Format: toxicity, organism-based, Sprague-Dawley
Parameters: regimen Single, gender Male, age 6 weeks
Details: in vivo, po, 30 mg/kg, route gavage, dose level Low; for APTT / Bas / Eos / Fbg / Hb / Ht / Lym / MCHC / MCV / Mono / Neu / PT / Plat / RBC / Ret / WBC: tissue Blood; for KIDNEY_L / KIDNEY_R / KIDNEY_TOTAL: tissue Kidney; for LIVER: tissue Liver; for ALP / ALT / AST / BUN / CRE / Ca / Cl / DBIL / GLC / IP / K / LDH / Na / PL / RALB / TBIL / TC / TG / TP / gamma-GTP: tissue Plasma

Structure (SMILES): CS(=O)(=O)Nc1ccc([N+](=O)[O-])cc1Oc1ccccc1 [NIMESULIDE]
- TERMINAL_BW (3 h): 200.4 g
- APTT (3 h): 16.6 s
- Bas (3 h): 0%
- Eos (3 h): 1%
- Fbg (3 h): 231 mg/dL
- Hb (3 h): 13.1 g/dL
- Ht (3 h): 39.1%
- Lym (3 h): 80.8%
- MCHC (3 h): 33.6%
- MCV (3 h): 63.4 fL
- Mono (3 h): 5%
- Neu (3 h): 13.4%
- PT (3 h): 12.5 s
- Plat (3 h): 127.7 x10_4/uL
- RBC (3 h): 616.4 x10_4/ul
- Ret (3 h): 11.7%
- WBC (3 h): 116.6 x10_2/uL
- KIDNEY_L (3 h): 0.9 g
- KIDNEY_R (3 h): 0.9 g
- KIDNEY_TOTAL (3 h): 1.8 g
- LIVER (3 h): 9 g
- ALP (3 h): 803 IU/L
- ALT (3 h): 39.6 IU/L
- AST (3 h): 69.8 IU/L
- BUN (3 h): 16.6 mg/dL
- CRE (3 h): 0.6 mg/dL
- Ca (3 h): 10.9 mg/dL
- Cl (3 h): 107.6 meq/L
- DBIL (3 h): 0.064 mg/dL
- GLC (3 h): 208.4 mg/dL
- IP (3 h): 9.2 mg/dL
- K (3 h): 5 meq/L
- LDH (3 h): 106 IU/L
- Na (3 h): 141.2 meq/L
- PL (3 h): 134.4 mg/dL
- RALB (3 h): 3.7 g/dL
- TBIL (3 h): 0.3 mg/dL
- TC (3 h): 78.2 mg/dL
- TG (3 h): 47.8 mg/dL
- TP (3 h): 5.2 g/dL
- gamma-GTP (3 h): 1.6 IU/L
- TERMINAL_BW (6 h): 196.1 g
- APTT (6 h): 17.4 s
- Bas (6 h): 0%
- Eos (6 h): 1%
- Fbg (6 h): 201.6 mg/dL
- Hb (6 h): 13.7 g/dL
- Ht (6 h): 40.5%
- Lym (6 h): 74.6%
- MCHC (6 h): 33.8%
- MCV (6 h): 65.6 fL
- Mono (6 h): 9.2%
- Neu (6 h): 15%
- PT (6 h): 12.6 s
- Plat (6 h): 111.4 x10_4/uL
- RBC (6 h): 618 x10_4/ul
- Ret (6 h): 10.6%
- WBC (6 h): 84.5 x10_2/uL
- KIDNEY_L (6 h): 0.9 g
- KIDNEY_R (6 h): 0.9 g
- KIDNEY_TOTAL (6 h): 1.8 g
- LIVER (6 h): 8.3 g
- ALP (6 h): 790 IU/L
- ALT (6 h): 33 IU/L
- AST (6 h): 62.2 IU/L
- BUN (6 h): 13.8 mg/dL
- CRE (6 h): 0.6 mg/dL
- Ca (6 h): 10.7 mg/dL
- Cl (6 h): 106.6 meq/L
- DBIL (6 h): 0.054 mg/dL
- GLC (6 h): 200 mg/dL
- IP (6 h): 10.2 mg/dL
- K (6 h): 5 meq/L
- LDH (6 h): 86.8 IU/L
- Na (6 h): 139.8 meq/L
- PL (6 h): 119.6 mg/dL
- RALB (6 h): 3.7 g/dL
- TBIL (6 h): 0.4 mg/dL
- TC (6 h): 68 mg/dL
- TG (6 h): 56.6 mg/dL
- TP (6 h): 5.2 g/dL
- gamma-GTP (6 h): 1.2 IU/L
- TERMINAL_BW (9 h): 200.7 g
- APTT (9 h): 16.7 s
- Bas (9 h): 0%
- Eos (9 h): 0.6%
- Fbg (9 h): 207.8 mg/dL
- Hb (9 h): 13.2 g/dL
- Ht (9 h): 39.5%
- Lym (9 h): 81.4%
- MCHC (9 h): 33.5%
- MCV (9 h): 66.3 fL
- Mono (9 h): 8.2%
- Neu (9 h): 10%
- PT (9 h): 12.3 s
- Plat (9 h): 111.8 x10_4/uL
- RBC (9 h): 596.2 x10_4/ul
- Ret (9 h): 11%
- WBC (9 h): 78.5 x10_2/uL
- KIDNEY_L (9 h): 1 g
- KIDNEY_R (9 h): 1 g
- KIDNEY_TOTAL (9 h): 1.9 g
- LIVER (9 h): 8.4 g
- ALP (9 h): 888.4 IU/L
- ALT (9 h): 30.8 IU/L
- AST (9 h): 61 IU/L
- BUN (9 h): 15 mg/dL
- CRE (9 h): 0.5 mg/dL
- Ca (9 h): 10.6 mg/dL
- Cl (9 h): 108 meq/L
- DBIL (9 h): 0.014 mg/dL
- GLC (9 h): 201 mg/dL
- IP (9 h): 10.2 mg/dL
- K (9 h): 4.9 meq/L
- LDH (9 h): 99 IU/L
- Na (9 h): 139.4 meq/L
- PL (9 h): 135.8 mg/dL
- RALB (9 h): 3.9 g/dL
- TBIL (9 h): 0.4 mg/dL
- TC (9 h): 78.2 mg/dL
- TG (9 h): 41 mg/dL
- TP (9 h): 5.3 g/dL
- gamma-GTP (9 h): 1.4 IU/L
- TERMINAL_BW (24 h): 212.5 g
- APTT (24 h): 17.2 s
- Bas (24 h): 0%
- Eos (24 h): 1.2%
- Fbg (24 h): 199.2 mg/dL
- Hb (24 h): 13.6 g/dL
- Ht (24 h): 40.7%
- Lym (24 h): 71.2%
- MCHC (24 h): 33.4%
- MCV (24 h): 63.8 fL
- Mono (24 h): 8.2%
- Neu (24 h): 19.4%
- PT (24 h): 11.7 s
- Plat (24 h): 109.8 x10_4/uL
- RBC (24 h): 638.4 x10_4/ul
- Ret (24 h): 10.3%
- WBC (24 h): 124.8 x10_2/uL
- KIDNEY_L (24 h): 0.9 g
- KIDNEY_R (24 h): 1 g
- KIDNEY_TOTAL (24 h): 1.9 g
- LIVER (24 h): 10.6 g
- ALP (24 h): 968.4 IU/L
- ALT (24 h): 44 IU/L
- AST (24 h): 68.8 IU/L
- BUN (24 h): 19.2 mg/dL
- CRE (24 h): 0.6 mg/dL
- Ca (24 h): 10.8 mg/dL
- Cl (24 h): 106 meq/L
- DBIL (24 h): 0.012 mg/dL
- GLC (24 h): 190.6 mg/dL
- IP (24 h): 7.6 mg/dL
- K (24 h): 4.9 meq/L
- LDH (24 h): 99.2 IU/L
- Na (24 h): 140.2 meq/L
- PL (24 h): 151.6 mg/dL
- RALB (24 h): 4 g/dL
- TBIL (24 h): 0.3 mg/dL
- TC (24 h): 81 mg/dL
- TG (24 h): 90 mg/dL
- TP (24 h): 5.5 g/dL
- gamma-GTP (24 h): 2 IU/L

From ChEMBL document CHEMBL3885861, “Open TG-GATES”
